Reference: patent US20260308145A1, “CDK2 INHIBITORS AND METHODS OF USING SAME” (Shenzhen lonova Life Science Co., Ltd., priority 2023, published 2026)

Legend:
Assay type in all cases: biochemical
CDK6/cyclinD3 = biological target: T1, CDK6/cyclinD3 (Homo sapiens, UniProt Q00534); experiment: Cyclin-dependent kinase activity assay (continuous ATP coupling assay), CDK6/cyclinD3; details: CDK6/cyclinD3 25 nM, ATP 500 μM, Rb copeptide 500 μM, 15 min preincubation, pH 7.5, 1% DMSO
T1 construct: purchased Carna Biosciences 04-107
T1 sequence (Q00534 whole entry): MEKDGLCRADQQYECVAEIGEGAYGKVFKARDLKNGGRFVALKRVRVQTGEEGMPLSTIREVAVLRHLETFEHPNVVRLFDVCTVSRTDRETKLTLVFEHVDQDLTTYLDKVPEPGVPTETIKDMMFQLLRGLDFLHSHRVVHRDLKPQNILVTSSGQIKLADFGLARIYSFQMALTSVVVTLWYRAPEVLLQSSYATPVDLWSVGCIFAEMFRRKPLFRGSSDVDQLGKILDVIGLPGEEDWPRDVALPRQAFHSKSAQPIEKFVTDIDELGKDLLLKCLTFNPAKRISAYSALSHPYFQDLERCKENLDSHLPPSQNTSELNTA
T1 sequence (P30281 whole entry partner): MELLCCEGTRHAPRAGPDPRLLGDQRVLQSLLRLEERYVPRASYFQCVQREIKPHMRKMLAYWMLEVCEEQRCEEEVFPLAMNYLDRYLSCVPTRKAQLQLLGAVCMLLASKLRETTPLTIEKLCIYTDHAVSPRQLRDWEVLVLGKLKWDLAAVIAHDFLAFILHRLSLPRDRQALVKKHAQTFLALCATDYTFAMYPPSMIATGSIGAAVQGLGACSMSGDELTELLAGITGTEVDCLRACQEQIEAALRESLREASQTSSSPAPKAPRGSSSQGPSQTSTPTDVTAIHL
Method: (§1) Cyclin-dependent kinase activity assay was measured by continuous ATP coupling assay in which ADP generated by kinase catalyzed phosphorylation was converted back to ATP by consuming phosphoenolpyruvate (PEP) and NADH catalyzed by pyruvate kinase/lactate dehydrogenase (PK/LDH). The assay compositions (see, Table 1) consist of one of the kinases, including CDK1/cyclinB1, CDK2/cyclinE1, CDK4/cyclinD3, and CDK6/cyclinD3 at the designated concentration, ATP at the corresponding Km of the kinase, copeptide and the ATP coupling system of PEP, NADH and PK/LDH. The assay was conducted in a reaction buffer of 20 mM Tris (pH 7.5) with 50 mM NaCl, 0.5 mM DTT and 0.04% BSA, and results were monitored continuously by fluorescence decrease of NADH with excitation at 340 nm and emission at 460 nm. Linear regression of the resulting reaction time traces gave reaction velocities.
(§2) For inhibition assay, compounds were first serial diluted in a 1:3 ratio from 10 μM to 0.05 nM using 10× reaction buffer. One of the CDK kinase was then introduced to compounds solution and incubated for 15 min. Finally, the compositions of ATP coupling system were introduced to the resulting solution to initiate the reaction. The final reaction mixture was in 1× reaction assay buffer with 1% DMSO. The half-maximal inhibition concentrations (IC50) for compounds were determined by fitting the plots of reaction velocity against compound concentration with 4-variable IC50 equation. The inhibition constants (Ki) were determined by fitting the same plots with quadratic/Morrison equation. Data were analyzed using commercially available software Graphpad Prism.
(§3) Exemplary results are presented as calculated IC50 values. • A: IC50≤10 nM • B: IC50>10 nM and IC50<100 nM • C: IC50≥100 nM

CDK1/cyclinB1 = biological target: T2, CDK1/cyclinB1 (Homo sapiens, UniProt P06493); experiment: Cyclin-dependent kinase activity assay (continuous ATP coupling assay), CDK1/cyclinB1; details: CDK1/cyclinB1 10 nM, ATP 200 μM, Histone1 copeptide 100 μM, 15 min preincubation, pH 7.5, 1% DMSO
T2 construct: purchased Carna Biosciences 04-102
T2 sequence (P06493 whole entry): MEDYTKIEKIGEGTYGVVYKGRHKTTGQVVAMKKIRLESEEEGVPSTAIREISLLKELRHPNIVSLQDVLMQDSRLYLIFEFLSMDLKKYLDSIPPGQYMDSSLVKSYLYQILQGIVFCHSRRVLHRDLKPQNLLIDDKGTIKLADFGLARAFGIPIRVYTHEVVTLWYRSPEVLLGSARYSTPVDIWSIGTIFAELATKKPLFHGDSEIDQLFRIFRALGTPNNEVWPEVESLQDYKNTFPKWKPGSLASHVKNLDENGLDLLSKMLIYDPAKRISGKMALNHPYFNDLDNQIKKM
T2 sequence (P14635 whole entry partner): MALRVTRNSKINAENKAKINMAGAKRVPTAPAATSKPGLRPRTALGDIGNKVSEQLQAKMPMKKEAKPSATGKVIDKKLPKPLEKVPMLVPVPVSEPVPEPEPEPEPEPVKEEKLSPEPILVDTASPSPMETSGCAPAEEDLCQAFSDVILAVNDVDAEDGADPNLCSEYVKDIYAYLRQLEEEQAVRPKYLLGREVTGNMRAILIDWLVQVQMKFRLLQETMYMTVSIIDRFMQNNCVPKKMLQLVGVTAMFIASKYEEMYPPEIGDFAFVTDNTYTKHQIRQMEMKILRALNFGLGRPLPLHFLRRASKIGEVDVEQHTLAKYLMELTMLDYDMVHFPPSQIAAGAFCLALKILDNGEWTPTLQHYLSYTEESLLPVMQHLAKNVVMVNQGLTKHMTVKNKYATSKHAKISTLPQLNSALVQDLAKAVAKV
Method: as §1, §2, §3

CDK4/cyclinD3 = biological target: T3, CDK4/cyclinD3 (Homo sapiens, UniProt P11802); experiment: Cyclin-dependent kinase activity assay (continuous ATP coupling assay), CDK4/cyclinD3; details: CDK4/cyclinD3 60 nM, ATP 500 μM, Rb copeptide 500 μM, 15 min preincubation, pH 7.5, 1% DMSO
T3 construct: purchased Carna Biosciences 04-105
T3 sequence (P11802 whole entry): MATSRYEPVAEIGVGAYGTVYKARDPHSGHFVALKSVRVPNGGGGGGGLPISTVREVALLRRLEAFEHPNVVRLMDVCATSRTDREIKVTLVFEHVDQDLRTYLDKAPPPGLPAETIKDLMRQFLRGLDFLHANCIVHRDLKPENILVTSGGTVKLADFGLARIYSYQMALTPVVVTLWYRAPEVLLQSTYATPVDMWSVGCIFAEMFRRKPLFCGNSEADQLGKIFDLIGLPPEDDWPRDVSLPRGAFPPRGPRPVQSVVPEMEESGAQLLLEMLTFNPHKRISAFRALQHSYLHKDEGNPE
T3 sequence (P30281 whole entry partner): as the sequence (P30281 whole entry partner) above
Method: as §1, §2, §3

CDK2/cyclinE1 = biological target: T4, CDK2/cyclinE1 (Homo sapiens, UniProt P24941); experiment: Cyclin-dependent kinase activity assay (continuous ATP coupling assay), CDK2/cyclinE1; details: CDK2/cyclinE1 5 nM, ATP 300 μM, Rb copeptide 100 μM, 15 min preincubation, pH 7.5, 1% DMSO
T4 construct: purchased Carna Biosciences 04-165
Method: as §1, §2, §3

SMILES	IC50 (CDK6/cyclinD3) [µM]	IC50 (CDK1/cyclinB1) [µM]	IC50 (CDK4/cyclinD3) [µM]	IC50 (CDK2/cyclinE1) [µM]
CNS(=O)(=O)c1ccc(Nc2ncc(C(F)(F)F)c(-n3cc(C(C)(C)C#N)cn3)n2)cc1 [Example 49, 4-[[4-[4-(1-cyano-1-methyl-ethyl)pyrazol-1-yl]-5-(trifluoromethyl)pyrimidin-2-yl]amino]-N-methyl-benzene sulfonamide]	0.01 to 0.1	0.01 to 0.1	0.01 to 0.1	0.01 to 0.1
CNS(=O)(=O)c1ccc(Nc2ncc(C(F)(F)F)c(-n3cc(C4CC4)cn3)n2)cc1 [Example 50]	0.01 to 0.1	≥ 0.1	0.01 to 0.1	≤ 0.01
CNS(=O)(=O)c1ccc(Nc2ncc(C(F)(F)F)c(-n3cc(C4(C#N)CC4)cn3)n2)cc1 [Example 51, 4-[[4-[4-(1-cyanocyclopropyl)pyrazol-1-yl]-5-(trifluoromethyl)pyrimidin-2-yl]amino]-N-methyl-benzene sulfonamide]	≥ 0.1	≥ 0.1	≥ 0.1	0.01 to 0.1
[2H]C([2H])([2H])NS(=O)(=O)c1ccc(Nc2ncc(C(F)(F)F)c(-n3ccc(C(F)(F)F)n3)n2)cc1 [Example 54]	≥ 0.1	≥ 0.1	≥ 0.1	0.01 to 0.1
CNS(=O)(=O)c1ccc(Nc2ncc(C(F)(F)F)c(-n3ccc(C4CC4)n3)n2)cc1 [Example 56]	≥ 0.1	≥ 0.1	≥ 0.1	≥ 0.1
CNS(=O)(=O)c1ccc(Nc2ncc(C(F)(F)F)c(-n3nccc3C3CC3)n2)cc1 [Example 57]	≥ 0.1	≥ 0.1	≥ 0.1	0.01 to 0.1
CNS(=O)(=O)c1ccc(Nc2ncc(C(F)(F)F)c(-n3cc(C4CCN(C)CC4)cn3)n2)cc1 [Example 80, N-methyl-4-[[4-[4-(1-methyl-4-piperidyl)pyrazol-1-yl]-5-(trifluoromethyl)pyrimidin-2-yl]amino]benzene sulfonamide]	0.01 to 0.1	0.01 to 0.1	0.01 to 0.1	≤ 0.01
CNS(=O)(=O)c1ccc(Nc2ncc(C(F)(F)F)c(-n3cc(C4CCN(S(C)(=O)=O)CC4)cn3)n2)cc1 [Example 81]	0.01 to 0.1	0.01 to 0.1	0.01 to 0.1	0.01 to 0.1
CNS(=O)(=O)c1ccc(Nc2ncc(C(F)(F)F)c(-n3cc(C4CCN(C(C)C)CC4)cn3)n2)cc1 [Example 82]	≥ 0.1	0.01 to 0.1	0.01 to 0.1	≤ 0.01
CNS(=O)(=O)c1ccc(Nc2ncc(C(F)(F)F)c(-n3cc(N4CCN(C)CC4)cn3)n2)cc1 [Example 83]	≥ 0.1	≥ 0.1	≥ 0.1	≤ 0.01
CNS(=O)(=O)c1ccc(Nc2ncc(C(F)(F)F)c(-n3cc(CN4CCNCC4)cn3)n2)cc1 [Example 84]	≥ 0.1	≥ 0.1	≥ 0.1	0.01 to 0.1
CNS(=O)(=O)c1ccc(Nc2ncc(C(F)(F)F)c(-n3cc(N4CCNCC4)cn3)n2)cc1 [Example 85]	≥ 0.1	0.01 to 0.1	0.01 to 0.1	≤ 0.01
CNS(=O)(=O)c1ccc(Nc2ncc(C(F)(F)F)c(-n3cc(-c4ccoc4)cn3)n2)cc1 [Example 86]	≥ 0.1	≥ 0.1	≥ 0.1	0.01 to 0.1
CNS(=O)(=O)c1ccc(Nc2ncc(C(F)(F)F)c(-n3cc(N4CCCC4)cn3)n2)cc1 [Example 87, N-methyl-4-[[4-(4-pyrrolidin-1-ylpyrazol-1-yl)-5-(trifluoromethyl)pyrimidin-2-yl]amino]benzene sulfonamide]	≥ 0.1	≥ 0.1	≥ 0.1	0.01 to 0.1
CNS(=O)(=O)c1ccc(Nc2ncc(C(F)(F)F)c(-n3cc(N4CCCC4=O)cn3)n2)cc1 [Example 88, N-methyl-4-[[4-[4-(2-oxopyrrolidin-1-yl)pyrazol-1-yl]-5-(trifluoromethyl)pyrimidin-2-yl]amino]benzene sulfonamide]	≥ 0.1	≥ 0.1	≥ 0.1	0.01 to 0.1
CNS(=O)(=O)c1ccc(Nc2ncc(C(F)(F)F)c(-n3cc([C@H]4CCCN4)cn3)n2)cc1 [Example 91, (R)—N-methyl-4-((4-(4-(pyrrolidin-2-yl)-1H-pyrazol-1-yl)-5-(trifluoromethyl)pyrimidin-2-yl)amino)benzenesulfonamide]	0.01 to 0.1	0.01 to 0.1	0.01 to 0.1	≤ 0.01
CNS(=O)(=O)c1ccc(Nc2ncc(C(F)(F)F)c(-n3cc([C@@H]4CCNC4)cn3)n2)cc1 [Example 94, (S)—N-methyl-4-((4-(4-(pyrrolidin-3-yl)-1H-pyrazol-1-yl)-5-(trifluoromethyl)pyrimidin-2-yl)amino)benzenesulfonamide]	≥ 0.1	0.01 to 0.1	0.01 to 0.1	≤ 0.01

Next, values leading:

IC50 (CDK6/cyclinD3) [µM]	IC50 (CDK1/cyclinB1) [µM]	IC50 (CDK4/cyclinD3) [µM]	IC50 (CDK2/cyclinE1) [µM]	SMILES
0.01 to 0.1	0.01 to 0.1	0.01 to 0.1	≤ 0.01	[2H]C([2H])([2H])NS(=O)(=O)c1ccc(Nc2ncc(C(F)(F)F)c(-n3cc(CC(C)(C)O)cn3)n2)cc1 [Example 58]
0.01 to 0.1	0.01 to 0.1	0.01 to 0.1	≤ 0.01	CNS(=O)(=O)c1ccc(Nc2ncc(C(F)(F)F)c(-n3cc(C(C)(C)CO)cn3)n2)cc1 [Example 59]
≥ 0.1	0.01 to 0.1	0.01 to 0.1	0.01 to 0.1	CNS(=O)(=O)c1ccc(Nc2ncc(C(F)(F)F)c(-n3cc(C(C)(C)C(C)(C)O)cn3)n2)cc1 [Example 60]
≥ 0.1	≥ 0.1	0.01 to 0.1	≤ 0.01	[2H]C([2H])([2H])NS(=O)(=O)c1ccc(Nc2ncc(C(F)(F)F)c(-n3cc(CCC(C)(C)O)cn3)n2)cc1 [Example 61]
≥ 0.1	≥ 0.1	0.01 to 0.1	0.01 to 0.1	CNS(=O)(=O)c1ccc(Nc2ncc(F)c(-n3cc(CC(C)(C)O)cn3)n2)cc1 [Example 62]
0.01 to 0.1	≥ 0.1	0.01 to 0.1	0.01 to 0.1	CNS(=O)(=O)c1ccc(Nc2ncc(C)c(-n3cc(CC(C)(C)O)cn3)n2)cc1 [Example 63]
0.01 to 0.1	≥ 0.1	0.01 to 0.1	≤ 0.01	CNS(=O)(=O)c1ccc(Nc2ncc(C#N)c(-n3cc(CC(C)(C)O)cn3)n2)cc1 [Example 64]
0.01 to 0.1	0.01 to 0.1	0.01 to 0.1	≤ 0.01	CNS(=O)(=O)c1ccc(Nc2ncc(Cl)c(-n3cc(CC(C)(C)O)cn3)n2)cc1 [Example 65]
0.01 to 0.1	≥ 0.1	0.01 to 0.1	0.01 to 0.1	CNS(=O)(=O)c1ccc(Nc2ncc(C(F)F)c(-n3cc(CC(C)(C)O)cn3)n2)cc1 [Example 66]
≥ 0.1	≥ 0.1	≥ 0.1	0.01 to 0.1	CNS(=O)(=O)c1ccc(Nc2nccc(-n3cc(CC(C)(C)O)cn3)n2)cc1 [Example 67]
0.01 to 0.1	0.01 to 0.1	0.01 to 0.1	≤ 0.01	CNS(=O)(=O)c1ccc(Nc2ncc(Br)c(-n3cc(CC(C)(C)O)cn3)n2)cc1 [Example 68]
≥ 0.1	≥ 0.1	≥ 0.1	0.01 to 0.1	CNS(=O)(=O)c1ccc(Nc2ncc(C(F)(F)F)c(-n3ncc(CC(C)(C)O)c3C)n2)cc1 [Example 69]
≥ 0.1	≥ 0.1	≥ 0.1	0.01 to 0.1	CNS(=O)(=O)c1ccc(Nc2ncc(C(F)(F)F)c(-n3cc(CC(C)(C)O)c(C)n3)n2)cc1 [Example 70]
0.01 to 0.1	0.01 to 0.1	≤ 0.01	≤ 0.01	CC(C)(O)Cc1cnn(-c2nc(Nc3ccc(S(N)(=O)=O)cc3)ncc2C(F)(F)F)c1 [Example 71]
≥ 0.1	0.01 to 0.1	0.01 to 0.1	≤ 0.01	CNS(=O)(=O)c1ccc(Nc2ncc(C(F)(F)F)c(-n3cc(CC(C)(C)N)cn3)n2)cc1 [Example 72, 4-[[4-[4-(2-amino-2-methyl-propyl)pyrazol-1-yl]-5-(trifluoromethyl)pyrimidin-2-yl]amino]-N-methyl-benzene sulfonamide]
0.01 to 0.1	≥ 0.1	0.01 to 0.1	0.01 to 0.1	CC(C)(O)Cc1cnn(-c2nc(Nc3ccc(S(=O)(=O)NC4CC4)cc3)ncc2C(F)(F)F)c1 [Example 73]
